Type in all cases: ADME, cell-based
Data set [1] relates to RPMI 8402. As to the kind of experiment: Uptake in human RPMI8402 cells at 1 uM after 0.5 hrs. The settings on record: rpmi 8402, 0.5 h.
For data set [2], the system named is RPMI 8402. As to the kind of experiment: Uptake in human RPMI8402 cells at 1 uM after 4 hrs. To be noted: rpmi 8402, 4 h.
Data set [3] relates to RPMI 8402. Kind of data set: Uptake in human RPMI8402 cells at 1 uM after 1 hr. To be noted: rpmi 8402, 1 h.
In data set [4] the test system is RPMI 8402. As to the kind of experiment: Uptake in human RPMI8402 cells at 1 uM after 2 hrs. To be noted: rpmi 8402, 2 h.

Structures are written as SMILES.

For the compound `c1ccc(-c2ccc3[nH]c(-c4ccc5[nH]c(-c6ccc7cc[nH]c7c6)nc5c4)nc3c2)cc1`, the Drug uptake amounted to 18% in the data set with RPMI 8402 [1] and 30% with RPMI 8402 [2].

Take `c1ccc(-c2ccc3[nH]c(-c4ccc5[nH]c(-c6ccc7[nH]cnc7c6)nc5c4)nc3c2)cc1`: the Drug uptake with RPMI 8402 [1], in the data set with RPMI 8402 [2], in the data set with RPMI 8402 [3] and in the data set with RPMI 8402 [4] was 3% throughout.

The values are drawn from ChEMBL document CHEMBL1146184, “Drug self-association modulates the cellular bioavailability of DNA minor groove-directed terbenzimidazoles” (J Med Chem, 2006).
